The structures appear in SMILES notation. Where “and” joins values, the source holds several entries; their conditions need not be identical. Equal values may be shown once. Toxic doses and inconclusive results are not listed.

The test system of this assay is P388 leukemia ip, CD2F1 mice, survival T/C. In words: NCI In Vivo Anticancer Drug Screen. Data for tumor model P388 Leukemia (intraperitoneal) in CD2F1 (CDF1) mice. As to conditions: endpoint: median survival time, higher = longer survival. In short, it runs like this:
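Mice carrying the transplanted tumor received test compound or vehicle. Survival was recorded in each group, and the value is the treated-group measurement divided by that of the vehicle-treated control group.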

The mark [1] stands for this setting: dose: 12.5 mg/kg/injection, schedule: Q01DX009 (ip), vehicle: saline with Tween-80.
The mark [2] stands for this setting: dose: 50.0 mg/kg/injection, schedule: Q01DX009 (ip), vehicle: saline with Tween-80.
[3] abbreviates: dose: 100.0 mg/kg/injection, schedule: Q01DX009 (ip), vehicle: saline with Tween-80.
Setting [4] is: dose: 200.0 mg/kg/injection, schedule: Q01DX009 (ip), vehicle: saline with Tween-80.
[5] abbreviates: dose: 50.0 mg/kg/injection, schedule: Q01DX005 (ip), vehicle: saline.
[6] abbreviates: dose: 100.0 mg/kg/injection, schedule: Q01DX005 (ip), vehicle: saline.
Setting [7] is: dose: 200.0 mg/kg/injection, schedule: Q01DX005 (ip), vehicle: saline.
Setting [8] is: dose: 200.0 mg/kg/injection, schedule: Q01DX009 (ip), vehicle: Klucel (hydroxypropylcellulose) (HPC).
Setting [9] is: dose: 60.0 mg/kg/injection, schedule: Q01DX005 (ip), vehicle: saline with Tween-80.

As to `CC1(C)OC2C(COC(=O)c3ccc([N+](=O)[O-])cc3)OC(NC(=O)N(CCCl)N=O)C2O1` (centres undefined), the T/C by setting is: (dose: 0.09 mg/kg/injection, schedule: Q01DX009 (ip), vehicle: saline with Tween-80) 119 % of control; (dose: 0.19 mg/kg/injection, schedule: Q01DX009 (ip), vehicle: saline with Tween-80) 119 % of control; (dose: 0.39 mg/kg/injection, schedule: Q01DX009 (ip), vehicle: saline with Tween-80) 119 % of control; (dose: 1.56 mg/kg/injection, schedule: Q01DX009 (ip), vehicle: saline with Tween-80) 153 % of control; (dose: 3.12 mg/kg/injection, schedule: Q01DX009 (ip), vehicle: saline with Tween-80) 174 % of control; under setting [1], 202 % of control. The T/C is 272 % of control (dose: 25.0 mg/kg/injection, schedule: Q01DX009 (ip), vehicle: saline with Tween-80); 282 % of control under setting [2]; 154 % of control under setting [3]; 109 % of control under setting [4].

Regarding `CC(=O)NC1C(Nc2ccc(S(=O)(=O)Nc3ncccn3)cc2)OC(CO)C(O)C1O` (centres undefined), the T/C is, setting by setting: under setting [5], 106 % of control; under setting [6], 99 % of control; under setting [7], 101 % of control.

In the case of `COc1cc(C(O)Cc2ccccc2)cc(OC)c1OC` (centres undefined), the T/C (dose: 31.25 mg/kg/injection, schedule: Q01DX009 (ip), vehicle: saline + Tween-80 + alcohol) was 98 % of control; the T/C (dose: 62.5 mg/kg/injection, schedule: Q01DX009 (ip), vehicle: saline + Tween-80 + alcohol) was 109 % of control; the T/C (dose: 125.0 mg/kg/injection, schedule: Q01DX009 (ip), vehicle: saline + Tween-80 + alcohol) was 91 % of control; the T/C (dose: 250.0 mg/kg/injection, schedule: Q01DX009 (ip), vehicle: saline + Tween-80 + alcohol) was 89 % of control.

As for `CCOC(=O)N/N=C/c1ccc(N(C)CCC#N)cc1`, the T/C by setting is: (dose: 6.25 mg/kg/injection, schedule: Q01DX009 (ip), vehicle: Klucel (hydroxypropylcellulose) (HPC)) 90 % of control; (dose: 12.5 mg/kg/injection, schedule: Q01DX009 (ip), vehicle: Klucel (hydroxypropylcellulose) (HPC)) 100 % of control; (dose: 25.0 mg/kg/injection, schedule: Q01DX009 (ip), vehicle: Klucel (hydroxypropylcellulose) (HPC)) 97 % of control; (dose: 50.0 mg/kg/injection, schedule: Q01DX009 (ip), vehicle: Klucel (hydroxypropylcellulose) (HPC)) 88 % of control and 89 % of control; under setting [8], 90 % of control.

Take `CCCCCCCCCCCCCCCCCCOC(=O)C(N)CCCCN` (centres undefined): the T/C was 96 % of control (dose: 15.0 mg/kg/injection, schedule: Q01DX005 (ip), vehicle: saline); 110 % of control (dose: 30.0 mg/kg/injection, schedule: Q01DX005 (ip), vehicle: saline); 109 % of control and 111 % of control (dose: 60.0 mg/kg/injection, schedule: Q01DX005 (ip), vehicle: saline).

As for `COc1cccc(NCNC2Nc3ccccc3N2)c1`, the T/C reads like this: (dose: 15.0 mg/kg/injection, schedule: Q01DX005 (ip), vehicle: saline with Tween-80) 106 % of control; (dose: 30.0 mg/kg/injection, schedule: Q01DX005 (ip), vehicle: saline with Tween-80) 107 % of control; under setting [9], 107 % of control.

Regarding `COC1/C=C/OC2(C)Oc3c(C)c(O)c4c(O)c(c(/C=N/Nc5nc6c(N)ncnc6n5C5OC(CO)C(O)C5O)c(O)c4c3C2=O)NC(=O)C(C)=C/C=C/C(C)C(O)C(C)C(O)C(C)C(OC(C)=O)C1C` (centres undefined), the T/C by setting is: under setting [2], 104 % of control; under setting [3], 99 % of control; under setting [4], 113 % of control.

On to `Cc1nnsc1-c1nnc2sc(C(F)(F)F)nn12`, for which the T/C by setting is: (dose: 50.0 mg/kg/injection, schedule: Q04DX002 (ip), vehicle: Klucel (hydroxypropylcellulose) (HPC)) 100 % of control; (dose: 100.0 mg/kg/injection, schedule: Q04DX002 (ip), vehicle: Klucel (hydroxypropylcellulose) (HPC)) 100 % of control; (dose: 200.0 mg/kg/injection, schedule: Q04DX002 (ip), vehicle: Klucel (hydroxypropylcellulose) (HPC)) 100 % of control.

Consider `Cc1cccc2c(NCCCCCCNc3cc(C)[n+](C)c4c(C)cccc34)cc(C)[n+](C)c12`, for which the T/C (dose: 3.12 mg/kg/injection, schedule: Q01DX005 (ip), vehicle: suspension in saline) was 112 % of control; the T/C (dose: 6.25 mg/kg/injection, schedule: Q01DX005 (ip), vehicle: suspension in saline) was 106 % of control; the T/C (dose: 12.5 mg/kg/injection, schedule: Q01DX005 (ip), vehicle: suspension in saline) was 112 % of control.

`Cc1c2cccc(Sc3ccccc3)c2c2c3c(cccc13)[S+](c1ccccc1)C2` (centres undefined): the T/C was 113 % of control (dose: 6.25 mg/kg/injection, schedule: Q01DX009 (ip), vehicle: saline with Tween-80) and 115 % of control under setting [1].

For the molecule `CC(NCCCCNC(C)C(=O)O)C(=O)O` (centres undefined), the T/C was 94 % of control under setting [5], 103 % of control under setting [6] and 102 % of control under setting [7].

`COC(=O)c1nnn(-c2cccc(Cl)c2)c1C(=O)c1ccc(Cl)c(Cl)c1`: the T/C was 100 % of control under setting [9]; 87 % of control (dose: 120.0 mg/kg/injection, schedule: Q01DX005 (ip), vehicle: saline with Tween-80); 88 % of control (dose: 240.0 mg/kg/injection, schedule: Q01DX005 (ip), vehicle: saline with Tween-80).

Consider `COc1ccc2c(C(=O)O)cc3c4ccccc4ncc3c2c1`, for which the T/C is 100 % of control (dose: 12.5 mg/kg/injection, schedule: Q01DX009 (ip), vehicle: distilled water + Tween-80); 95 % of control (dose: 25.0 mg/kg/injection, schedule: Q01DX009 (ip), vehicle: distilled water + Tween-80); 98 % of control (dose: 50.0 mg/kg/injection, schedule: Q01DX009 (ip), vehicle: distilled water + Tween-80); 96 % of control (dose: 100.0 mg/kg/injection, schedule: Q01DX009 (ip), vehicle: distilled water + Tween-80); 99 % of control (dose: 200.0 mg/kg/injection, schedule: Q01DX009 (ip), vehicle: distilled water + Tween-80).

In the case of `c1cc2c(cc1C1SCSCS1)OCO2`, the T/C was 100 % of control (dose: 100.0 mg/kg/injection, schedule: Q01DX009 (ip), vehicle: Klucel (hydroxypropylcellulose) (HPC)); 120 % of control under setting [8]; 110 % of control (dose: 400.0 mg/kg/injection, schedule: Q01DX009 (ip), vehicle: Klucel (hydroxypropylcellulose) (HPC)).

In the case of `N=C1C=CC(=C(c2ccc(N)cc2)c2ccc(N)cc2)C=C1`, the T/C is, setting by setting: (dose: 6.25 mg/kg/injection, schedule: Q01DX005 (ip), vehicle: saline with Tween-80) 98 % of control; (dose: 12.5 mg/kg/injection, schedule: Q01DX005 (ip), vehicle: saline with Tween-80) 98 % of control.

On to `Cc1onc(-c2c(Cl)cccc2Cl)c1C(=O)Nc1ccc(Cl)c(Cl)c1Cl`, for which the T/C was 96 % of control (dose: 60.0 mg/kg/injection, schedule: Q01DX005 (ip), vehicle: Klucel (hydroxypropylcellulose) (HPC)); 93 % of control (dose: 120.0 mg/kg/injection, schedule: Q01DX005 (ip), vehicle: Klucel (hydroxypropylcellulose) (HPC)); 92 % of control (dose: 240.0 mg/kg/injection, schedule: Q01DX005 (ip), vehicle: Klucel (hydroxypropylcellulose) (HPC)).

Consider `Cn1c2ccccc2c2nnc(N/N=C/c3ccncc3)nc21`, for which the T/C (dose: 100.0 mg/kg/injection, schedule: Q04DX002 (ip), vehicle: saline with Tween-80) is 88 % of control; the T/C (dose: 200.0 mg/kg/injection, schedule: Q04DX002 (ip), vehicle: saline with Tween-80) is 88 % of control; the T/C (dose: 400.0 mg/kg/injection, schedule: Q04DX002 (ip), vehicle: saline with Tween-80) was 99 % of control and 100 % of control.

In the case of `CCOC(=O)c1[nH]cnc1/N=N/c1nc(O)c(C#N)[nH]1`, the T/C reads like this: (dose: 60.0 mg/kg/injection, schedule: Q01DX005 (ip), vehicle: suspension in saline) 97 % of control; (dose: 120.0 mg/kg/injection, schedule: Q01DX005 (ip), vehicle: suspension in saline) 100 % of control; (dose: 240.0 mg/kg/injection, schedule: Q01DX005 (ip), vehicle: suspension in saline) 100 % of control.

Consider `NC1=NS(=O)(=O)Nc2nc[nH]c21`, for which the T/C is 101 % of control under setting [2] and 100 % of control under setting [3].

As for `CN=C(NC)c1ccc(NC(=O)c2cc(Cl)cc(C(=O)Nc3ccc(C(=NC)NC)cc3)c2)cc1`, the T/C by setting is: (dose: 6.25 mg/kg/injection, schedule: Q01DX005 (ip), vehicle: saline) 98 % of control; (dose: 12.5 mg/kg/injection, schedule: Q01DX005 (ip), vehicle: saline) 113 % of control; (dose: 25.0 mg/kg/injection, schedule: Q01DX005 (ip), vehicle: saline) 118 % of control.

The values above are taken from PubChem BioAssay AID330 (DTP/NCI, 2004).
